# Test system: patients recruited within 30 days after a myocardial infarction
# Assay: COLCOT randomized double-blind trial, efficacy end points, colchicine 0.5 mg once daily vs placebo
# Type: in vivo, human
# Protocol: We performed a randomized, double-blind trial involving patients recruited within 30 days after a myocardial infarction. The patients were randomly assigned to receive either low-dose colchicine (0.5 mg once daily) or placebo. A total of 4745 patients were enrolled; 2386 patients were assigned to the colchicine group, and 2379 to the placebo group. Patients were followed for a median of 22.6 months.
# The primary efficacy end point was a composite of death from cardiovascular causes, resuscitated cardiac arrest, myocardial infarction (e.g., acute myocardial infraction or type II myocardial infarction), stroke, or urgent hospitalization for angina leading to coronary revascularization. The components of the primary end point and safety were also assessed.
# COLCOT was an international multicenter, randomized, double-blinded trial that randomly assigned patients to receive either low-dose colchicine (0.5 mg once daily) or placebo. The study protocol and main results have been published (see, Tardif et al., N Engl J Med 2019). […] Main exclusion criteria were severe heart failure, reduced left ventricular ejection fraction (<35%), recent stroke (<3 months), type 2 MI, recent (<3 years) or planned coronary artery bypass graft (CABG), history of cancer (<3 years), and inflammatory bowel disease or chronic diarrhea. All patients enrolled in the trial benefited from percutaneous coronary intervention whenever indicated and guidelines-directed management of CV disease prior to randomization (see. Tardif et al., N Engl J Med 2019).
# Clinical follow-up consisted of evaluations at 1 and 3 months after randomization and every 3 months thereafter. An independent clinical endpoint committee, blinded to trial-group assignment, adjudicated clinical endpoints. The trial was locally approved by the various institutional review boards, and all patients signed a written informed consent before enrollment.
# The primary efficacy endpoint was a composite of CV death, resuscitated cardiac arrest, MI, stroke, or urgent hospitalization for angina requiring coronary revascularization. The secondary endpoints consisted of the components of the primary efficacy endpoint, all-cause death, and a composite of CV death, resuscitated cardiac arrest, MI, or stroke. Exploratory endpoints included all coronary revascularizations, including both elective and urgent coronary revascularizations.
# The primary efficacy endpoint was a composite of cardiovascular death, MI, ischemic stroke, and urgent coronary revascularization. Secondary efficacy endpoints consisted of the components of the primary endpoint, composite of cardiovascular death, MI, and ischemic stroke, as well as deep vein thrombosis or pulmonary embolus, and atrial fibrillation (AF). To maximize consistency in pooling efficacy endpoints among trials, the primary and secondary composite efficacy and stroke endpoints in COLCOT were modified to meet the definition of primary and stroke endpoints of the LoDoCo2 trial. Therefore, adjudicated events of resuscitated cardiac arrest and non-ischemic stroke in COLCOT were excluded from the pooled primary endpoint. The component endpoint of stroke was also restricted to include only ischemic strokes. Incidence rates and hazards ratios (HRs) were calculated for the new primary composite endpoint and ischemic stroke endpoint using individual patient data from COLCOT.
# The COLCOT trial was performed as follows. A randomized, double-blind trial involving patients recruited within 30 days after a myocardial infarction was performed. The patients were randomly assigned to receive either low-dose colchicine (0.5 mg once daily) or placebo. A total of 4745 patients were enrolled; 2386 patients were assigned to the colchicine group, and 2379 to the placebo group. […]
# [1] = per-protocol population, colchicine vs placebo
# [2] = subgroup History of diabetes: No
# [3] = subgroup History of diabetes: Yes
# [4] = subgroup History of hypertension: No
# [5] = subgroup History of hypertension: Yes
# [6] = subgroup Prior PCI or CABG: Yes
# [7] = subgroup Prior stroke or TIA: No
# [8] = subgroup Prior stroke or TIA: Yes
# [9] = subgroup Smoking: Active smoker
# [10] = subgroup Smoking: Previous smoker
# [11] = subgroup White blood cell count: Above median
# [12] = subgroup White blood cell count: Below median
smiles,measurement,setting,value
"COc1cc2c(c(OC)c1OC)-c1ccc(OC)c(=O)cc1[C@@H](NC(C)=O)CC2 [Colchicine, colchicine]","Resuscitated cardiac arrest, % of patients",per-protocol population,(0.2%)
same,"Resuscitated cardiac arrest, no. of patients",per-protocol population,5 no.
same,"Stroke, % of patients",per-protocol population,(0.2%)
same,"Stroke, no. of patients",per-protocol population,5 no.
same,"Urgent hospitalization for angina requiring revascularization, % of patients",per-protocol population,(1.0%)
same,"Urgent hospitalization for angina requiring revascularization, no. of patients",per-protocol population,22 no.
same,"Primary endpoint, no. of patients","per-protocol population, N = 2260",115 no.
same,"MI, Hazard Ratio (95% CI)",[1],0.84 (0.62-1.14)
same,"Primary endpoint, Hazard Ratio (95% CI)",[1],0.71 (0.56-0.90)
same,"Resuscitated cardiac arrest, Hazard Ratio (95% CI)",[1],1.00 (0.29-3.46)
same,"Stroke, Hazard Ratio (95% CI)",[1],0.26 (0.10-0.71)
same,"Urgent hospitalization for angina requiring revascularization, Hazard Ratio (95% CI)",[1],0.47 (0.28-0.78)
same,"Primary efficacy composite endpoint, % of patients",[2],(4.8%)
same,"Primary efficacy composite endpoint, Hazard ratio (95% CI)",[2],0.85 (0.64; 1.13)
same,"Primary efficacy composite endpoint, no. of patients with event/total no. of patients",[2],91/1904
same,"Primary efficacy composite endpoint, % of patients",[3],(8.7%)
same,"Primary efficacy composite endpoint, Hazard ratio (95% CI)",[3],0.65 (0.44; 0.96)
same,"Primary efficacy composite endpoint, no. of patients with event/total no. of patients",[3],40/462
same,"Primary efficacy composite endpoint, % of patients",[4],(4.1%)
same,"Primary efficacy composite endpoint, Hazard ratio (95% CI)",[4],0.80 (0.54; 1.17)
same,"Primary efficacy composite endpoint, no. of patients with event/total no. of patients",[4],48/1181
same,"Primary efficacy composite endpoint, % of patients",[5],(7.0%)
same,"Primary efficacy composite endpoint, Hazard ratio (95% CI)",[5],0.76 (0.57; 1.01)
same,"Primary efficacy composite endpoint, no. of patients with event/total no. of patients",[5],83/1185
same,"Primary efficacy composite endpoint, % of patients",subgroup Prior MI: No,(4.3%)
same,"Primary efficacy composite endpoint, Hazard ratio (95% CI)",subgroup Prior MI: No,0.68 (0.51; 0.89)
same,"Primary efficacy composite endpoint, no. of patients with event/total no. of patients",subgroup Prior MI: No,85/1996
same,"Primary efficacy composite endpoint, % of patients",subgroup Prior MI: Yes,(12.4%)
same,"Primary efficacy composite endpoint, Hazard ratio (95% CI)",subgroup Prior MI: Yes,1.05 (0.70; 1.58)
same,"Primary efficacy composite endpoint, no. of patients with event/total no. of patients",subgroup Prior MI: Yes,46/370
same,"Primary efficacy composite endpoint, % of patients",subgroup Prior PCI or CABG: No,(4.3%)
same,"Primary efficacy composite endpoint, Hazard ratio (95% CI)",subgroup Prior PCI or CABG: No,0.72 (0.54; 0.95)
same,"Primary efficacy composite endpoint, no. of patients with event/total no. of patients",subgroup Prior PCI or CABG: No,83/1947
same,"Primary efficacy composite endpoint, % of patients",[6],(11.5%)
same,"Primary efficacy composite endpoint, Hazard ratio (95% CI)",[6],0.91 (0.62; 1.34)
same,"Primary efficacy composite endpoint, no. of patients with event/total no. of patients",[6],48/419
same,"Primary efficacy composite endpoint, % of patients",[7],(5.3%)
same,"Primary efficacy composite endpoint, Hazard ratio (95% CI)",[7],0.76 (0.60; 0.96)
same,"Primary efficacy composite endpoint, no. of patients with event/total no. of patients",[7],123/2311
same,"Primary efficacy composite endpoint, % of patients",[8],(14.5%)
same,"Primary efficacy composite endpoint, Hazard ratio (95% CI)",[8],1.09 (0.42; 2.82)
same,"Primary efficacy composite endpoint, no. of patients with event/total no. of patients",[8],8/55
same,"Primary efficacy composite endpoint, % of patients",subgroup Sex: Female,(7.8%)
same,"Primary efficacy composite endpoint, Hazard ratio (95% CI)",subgroup Sex: Female,0.99 (0.63; 1.58)
same,"Primary efficacy composite endpoint, no. of patients with event/total no. of patients",subgroup Sex: Female,37/472
same,"Primary efficacy composite endpoint, % of patients",subgroup Sex: Male,(5.0%)
same,"Primary efficacy composite endpoint, Hazard ratio (95% CI)",subgroup Sex: Male,0.70 (0.54; 0.91)
same,"Primary efficacy composite endpoint, no. of patients with event/total no. of patients",subgroup Sex: Male,94/1894
same,"Primary efficacy composite endpoint, % of patients",[9],(5.4%)
same,"Primary efficacy composite endpoint, Hazard ratio (95% CI)",[9],0.93 (0.60; 1.44)
same,"Primary efficacy composite endpoint, no. of patients with event/total no. of patients",[9],38/708
same,"Primary efficacy composite endpoint, % of patients",subgroup Smoking: Non-smoker,(6.0%)
same,"Primary efficacy composite endpoint, Hazard ratio (95% CI)",subgroup Smoking: Non-smoker,0.90 (0.61; 1.34)
same,"Primary efficacy composite endpoint, no. of patients with event/total no. of patients",subgroup Smoking: Non-smoker,47/787
same,"Primary efficacy composite endpoint, % of patients",[10],(5.3%)
same,"Primary efficacy composite endpoint, Hazard ratio (95% CI)",[10],0.59 (0.41; 0.85)
same,"Primary efficacy composite endpoint, no. of patients with event/total no. of patients",[10],46/871
same,"Primary efficacy composite endpoint, % of patients",[11],(5.3%)
same,"Primary efficacy composite endpoint, Hazard ratio (95% CI)",[11],0.80 (0.51; 1.25)
same,"Primary efficacy composite endpoint, no. of patients with event/total no. of patients",subgroup White blood cell count: Above median (8.64 × 10^3/μL),34/637
same,"Primary efficacy composite endpoint, % of patients",[12],(6.2%)
same,"Primary efficacy composite endpoint, Hazard ratio (95% CI)",[12],0.85 (0.56; 1.29)
same,"Primary efficacy composite endpoint, no. of patients with event/total no. of patients",subgroup White blood cell count: Below median (8.64 × 10^3/μL),41/660
